This is an account of results in patent publication US20220347168A1, “LUNG TARGETED ANTICANCER THERAPIES WITH LIPOSOMAL ANNAMYCIN” (Board of Regents, The University of Texas System, priority 2019, published 2022).

Data set [1] in a line: Pharmacokinetic and organ distribution studies of Annamycin and L-Annamycin. In kind it is in vivo. As to conditions: CD-1, mouse, lung and plasma, intravenous, 4 mg/kg; AUC, 24 h; read-out: Annamycin levels (AUC, 24 h) in lungs relative to plasma.
The target in data set [2] is P-glycoprotein 1 (P-gp) (Homo sapiens, UniProt P08183). As to conditions: earlier studies; cited from earlier work.
The test system of data set [3] is multidrug resistant (MDR) cell lines. The settings on record: earlier studies; cited from earlier work.

Some results are limits rather than exact numbers.

Chain of P-glycoprotein 1 (P-gp) (P08183 whole entry, species assumed): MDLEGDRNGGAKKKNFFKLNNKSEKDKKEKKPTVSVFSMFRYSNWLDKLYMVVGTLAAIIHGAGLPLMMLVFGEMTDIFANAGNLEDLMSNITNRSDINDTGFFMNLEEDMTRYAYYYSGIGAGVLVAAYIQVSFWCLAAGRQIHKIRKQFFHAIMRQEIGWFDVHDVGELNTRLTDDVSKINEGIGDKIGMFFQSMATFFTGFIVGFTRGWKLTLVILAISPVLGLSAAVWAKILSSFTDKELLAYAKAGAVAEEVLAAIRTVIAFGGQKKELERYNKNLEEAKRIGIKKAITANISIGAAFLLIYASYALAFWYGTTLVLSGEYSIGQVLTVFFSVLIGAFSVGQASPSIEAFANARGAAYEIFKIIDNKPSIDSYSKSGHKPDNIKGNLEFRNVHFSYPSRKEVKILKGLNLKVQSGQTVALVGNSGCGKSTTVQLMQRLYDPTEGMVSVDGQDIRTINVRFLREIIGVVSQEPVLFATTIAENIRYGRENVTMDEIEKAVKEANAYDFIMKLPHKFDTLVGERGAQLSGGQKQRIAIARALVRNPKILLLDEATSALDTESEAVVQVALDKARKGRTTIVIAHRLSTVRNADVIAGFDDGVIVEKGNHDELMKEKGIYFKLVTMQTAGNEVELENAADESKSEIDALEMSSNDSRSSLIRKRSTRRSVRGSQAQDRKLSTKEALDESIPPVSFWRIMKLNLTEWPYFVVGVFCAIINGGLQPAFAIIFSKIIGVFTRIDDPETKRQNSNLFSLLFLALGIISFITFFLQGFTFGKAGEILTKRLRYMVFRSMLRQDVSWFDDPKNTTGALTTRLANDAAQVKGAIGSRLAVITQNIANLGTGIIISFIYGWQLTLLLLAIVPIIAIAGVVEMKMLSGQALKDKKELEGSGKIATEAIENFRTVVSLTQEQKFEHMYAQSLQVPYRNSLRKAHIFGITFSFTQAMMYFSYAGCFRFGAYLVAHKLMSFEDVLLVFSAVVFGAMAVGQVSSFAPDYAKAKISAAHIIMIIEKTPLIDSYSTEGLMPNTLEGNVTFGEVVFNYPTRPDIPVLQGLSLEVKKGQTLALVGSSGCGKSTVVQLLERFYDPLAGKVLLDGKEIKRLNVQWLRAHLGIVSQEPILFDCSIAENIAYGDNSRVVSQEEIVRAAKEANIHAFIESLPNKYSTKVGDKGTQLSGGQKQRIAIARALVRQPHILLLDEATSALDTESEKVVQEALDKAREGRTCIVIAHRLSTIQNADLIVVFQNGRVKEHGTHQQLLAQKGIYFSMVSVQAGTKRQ

In the case of `C[C@@H]1O[C@@H](O[C@H]2C[C@](O)(C(=O)CO)Cc3c(O)c4c(c(O)c32)C(=O)c2ccccc2C4=O)[C@H](I)[C@H](O)[C@H]1O` [Annamycin, (7S,9S)-7-(((2R,3R,4R,5R,6S)-4,5-dihydroxy-3-iodo-6-methyltetrahydro-2H-pyran-2-yl)oxy)-6,9,11-trihydroxy-9-(2-hydroxyacetyl)-7,8,9,10-tetrahydrotetracene-5,12-dione], the Kp in data set [1] was over 10. Moreover, the “substrate for P-glycoprotein 1 (P-gp)” value in data set [2] is listed as “poor substrate”. The “cross-resistance with doxorubicin (DOX)” value in data set [3] is given as “not cross-resistant”.
